Source: patent US8895505B2, “Method of treatment of type 2 diabetes” (AdiStem Ltd., priority 2009, dated 2014)
No end group written: not given here.

Key:
type 2 diabetic patients = assay: TB4-7 trial: randomized, double-blind, placebo-controlled 2-month trial in type 2 diabetic patients; assay type: in vivo, human; conditions: 10 mg s.c. twice a week for 2 months
Description: The inventors have performed a single-center, randomized, double-blind, placebo-controlled 2-month trial of twice a week s.c. injection of 10 mg of TB4-7 (a peptide having the amino acid sequence LKKTETQ (SEQ ID NO:1)) in type 2 diabetic patients inadequately treated with diet/lifestyle or stable doses of common hypoglycemics for at least 3 months. The results from an interim 2 month report of that trial is provided in this example.
Patients with type 2 diabetes for >/=1 year were entered into 2 strata of hemoglobin A(1c) (HbA(1c)) levels: Stratum 1: 8.0% to 9.9%; and Stratum 2: 10.0% to 12.0%.
All subjects began a 1-month single-blind placebo run-in phase, followed by randomization in a 2:1 ratio of active treatment: placebo, to 2 months of double-blind treatment with either TB4-7 or saline placebo. Concurrent oral agents were continued unchanged throughout the study.
The primary outcome was the change in HbA(1c) from randomization; results of each stratum were analyzed independently. […] 14 subjects entered stratum 1 and 12 entered stratum 2.

dogs with canine DM = assay: Dog diabetes mellitus trials; assay type: in vivo; conditions: 10 mg once a week
Description: A total of 48 dogs took part in the trials. Dogs where put into two groups of 24: one group was injected with the full 10 mg Thymosin beta 4 protein (TB4) once a week; and the other group was injected with 10 mg TB4-7 once a week for four weeks.
Diagnosis criteria of DM and the pre-requisites for study inclusion were:
(1) clinical signs consistent with canine DM, such as polydipsia, polyuria, polyphagia, and weight loss; (2) persistent and 24-hour fasting hyperglycemia (>200 mg/dL) for more than 2 days; (3) persistent glycosuria for more than 2 days; and (4) insulin supplementation required to maintain normal glucose levels.
Glycosylated hemoglobin and blood glucose levels where measured at before every injection and seven days after the last injection.

[1] = Week 0 (before first injection)
[2] = Week 4 (seven days after last injection)

For LKKTETQ [TB4-7, LKKTETQ], which adverse events (type 2 diabetic patients) is on record?
Its adverse events is “No adverse events”.

What about the tolerability (type 2 diabetic patients) of the same substance?
The tolerability was “well tolerated”.

“Thymosin beta 4 (MSDKPDMAEIEKFDKSKLKKTETQEKNPLPSKETIEQEKQAGES; listed as Homo sapiens) [TB4, the full Thymosin beta 4 protein (TB4)]” was tested. Which Glucose (dogs with canine DM; [1]) did it give?
Its Glucose is 298 ± 64 mg/dL.

And the HbA1c (dogs with canine DM; [1])?
The HbA1c was 7.7 ± 2.2%.

And the Glucose (dogs with canine DM; Week 1)?
The Glucose was 310 ± 78 mg/dL.

And the HbA1c (dogs with canine DM; Week 1)?
The HbA1c was 7.8 ± 2.3%.

What about the Glucose (dogs with canine DM; Week 2) of the same substance?
Its Glucose is 296 ± 64 mg/dL.

What about the HbA1c (dogs with canine DM; Week 2) of the same substance?
The HbA1c was 7.7 ± 2.2%.

What about the Glucose (dogs with canine DM; Week 3) of the same substance?
The Glucose was 275 ± 72 mg/dL.

What about the HbA1c (dogs with canine DM; Week 3) of the same substance?
Its HbA1c is 7.2 ± 2.6%.

What about the Glucose (dogs with canine DM; [2]) of the same substance?
Its Glucose is 213 ± 82 mg/dL.

What about the HbA1c (dogs with canine DM; [2]) of the same substance?
Its HbA1c is 6.1 ± 2.9%.
